Experiments:
Assay type in all cases: in vivo
[1] = tested on: calamondin (Citrus madurensis); experiment: Leaf drop of calamondin after canopy spray with agonists alone or in combination with Ethrel; conditions: 7 days after application
Description: (§1) A solution of an α2-adrenergic agonist was prepared. The solution contained 0.25 to 2 mM of agonist dissolved in water containing an appropriate surfactant. Ethrel® (2-chloroethyl phosphonic acid), an abscission agent, was added at a concentration that causes fruit loosening (in the case of citrus, 100 to 400 mg/L, depending on the variety). The solution was sprayed onto a tree canopy until “run-off,” typically about 2.5 liters per 15 foot tree. […] Under field conditions the canopies were not sprayed with the agonist-containing solutions if rainfall was anticipated within 24 hours. A positive control, containing a suitable concentration of Ethrel® or other abscission agent, as well as an agonist and surfactant control were sprayed on separate canopies. After several days, usually 3 to 10, differences in leaf drop were measured by counting or weighing dropped leaves. Fruit detachment force (FDF, a measurement defined as the force required to remove fruit from the tree stem) was measured in all treatments.
(§2) Kinetic® was used as a surfactant. Leaf drop data are leaf loss means of 3 branches times 10 trees, 7 days after application. FDF data are means of 5 fruit times 10 trees, 5 days after application.

[2] = tested on: calamondin (Citrus madurensis); experiment: Fruit detachment force (FDF) of calamondin after canopy spray with agonists alone or in combination with Ethrel; conditions: 5 days after application
Description: as §1, §2

Valencia orange = experiment: Leaf drop of Valencia orange, Ethrel, coronatine, coronatine+guanfacine; conditions: 10 days after application
Description: The effect of Ethrel, coronatine, coronatine+guanfacine, and adjuvant alone on % cumulative leaf drop in Valencia orange was tested. The data reported in Table 3 are means of 3 branches times 5 trees, 10 days after application.

[3] = tested on: Valencia orange (Citrus sinensis); experiment: Leaf drop of Valencia orange, clonidine alone or in combination with Ethrel; conditions: 7 days after application
Description: as §1
Kinetic® was used as a surfactant. Data are the leaf loss means of 3 branches times 5 trees, 7 days after application.

[4] = agonist 1 mM + Ethrel 400 mg/L, Kinetic surfactant
[5] = agonist 1 mM alone, Kinetic surfactant
[6] = Ethrel 400 mg/L alone (positive control)
[7] = agonist 0.5 mM + Ethrel 400 mg/L, Kinetic surfactant
[8] = agonist 0.5 mM alone, Kinetic surfactant

SMILES: N=C(N)N/N=C/c1c(Cl)cccc1Cl [Guanabenz, guanabenz]
- % Cumulative Leaf Drop [1, 4]: 14.1%
- % Cumulative Leaf Drop [1, 5]: 5.9%
- % Reduction in FDF [2, 4]: 34.6%
- % Reduction in FDF [2, 5]: 1.0%

SMILES: CC[C@H]1C=C(C(=O)N[C@@]2(C(=O)O)C[C@@H]2CC)[C@H]2CCC(=O)[C@H]2C1 [coronatine]
- % Cumulative Leaf Drop (Valencia orange; coronatine 200 mg/L alone): 12.56%

SMILES: O=P(O)(O)CCCl [Ethrel ®, 2-chloroethyl phosphonic acid]
- % Cumulative Leaf Drop ([3]; Ethrel 100 mg/L alone): 19.1%
- % Cumulative Leaf Drop ([3]; Ethrel 200 mg/L alone): 43.8%
- % Cumulative Leaf Drop [1, 6]: 68.3%
- % Cumulative Leaf Drop (Valencia orange; Ethrel 200 mg/L alone): 49.23%
- % Reduction in FDF [2, 6]: 41.6%

SMILES: Brc1c(NC2=NCCN2)ccc2nccnc12 [UK14,304, Brimonidine]
- % Cumulative Leaf Drop [1, 7]: 15.6%
- % Cumulative Leaf Drop [1, 8]: 6.0%
- % Reduction in FDF [2, 7]: 33.4%
- % Reduction in FDF [2, 8]: 1.2%

SMILES: Clc1cccc(Cl)c1N=C1NCCN1 [Clonidine, clonidine]
- % Cumulative Leaf Drop ([3]; 1 mM clonidine + Ethrel 100 mg/L): 6.1%
- % Cumulative Leaf Drop ([3]; 1 mM clonidine + Ethrel 200 mg/L): 14.3%
- % Cumulative Leaf Drop ([3]; 1 mM clonidine alone): 2.7%
- % Cumulative Leaf Drop ([3]; 2 mM clonidine + Ethrel 100 mg/L): 7.0%
- % Cumulative Leaf Drop ([3]; 2 mM clonidine + Ethrel 200 mg/L): 15.1%
- % Cumulative Leaf Drop ([3]; 2 mM clonidine alone): 3.2%
- % Cumulative Leaf Drop [1, 4]: 13.4%
- % Cumulative Leaf Drop [1, 5]: 5.8%
- % Reduction in FDF [2, 4]: 40.5%
- % Reduction in FDF [2, 5]: 0.5%

SMILES: N=C(N)NC(=O)Cc1c(Cl)cccc1Cl [Guanafacine, guanfacine]
- % Cumulative Leaf Drop [1, 4]: 4.8%
- % Cumulative Leaf Drop [1, 5]: 6.5%
- % Cumulative Leaf Drop (Valencia orange; 2 mM guanfacine + coronatine 200 mg/L): 3.07%
- % Reduction in FDF [2, 4]: 34.8%
- % Reduction in FDF [2, 5]: 1.0%

— US20020183205A1, “Use of alpha2-adrenergic receptor agonists and adrenergic inhibitors in reducing defoliation” (priority 2001, published 2002)
